Publication PMC7190985 (Frontiers in Microbiology, 2020)
Entries after “also recorded” stand apart in the source; their conditions may differ.

Key:
VACV WR-Luc virus = assay type: cell-based
VACV WR A4-YFP = assay type: cell-based, vaccinia virus
in vitro = conditions: human
VACV-WR-GFP virus = assay: microbe, parasite or virus in culture; assay type: cell-based; conditions: Orthopoxvirus vaccinia, HeLa, 24 h; for IC50: read-out: IC50 (50% inhibition of viral spread); for IC90: read-out: IC90 (90% inhibition of viral spread)
VACV IHDJ virus = assay type: cell-based, vaccinia virus
luciferase = luciferase (Photinus pyralis, UniProt P08659); assay type: biochemical
luciferase, sequence (P08659 whole entry): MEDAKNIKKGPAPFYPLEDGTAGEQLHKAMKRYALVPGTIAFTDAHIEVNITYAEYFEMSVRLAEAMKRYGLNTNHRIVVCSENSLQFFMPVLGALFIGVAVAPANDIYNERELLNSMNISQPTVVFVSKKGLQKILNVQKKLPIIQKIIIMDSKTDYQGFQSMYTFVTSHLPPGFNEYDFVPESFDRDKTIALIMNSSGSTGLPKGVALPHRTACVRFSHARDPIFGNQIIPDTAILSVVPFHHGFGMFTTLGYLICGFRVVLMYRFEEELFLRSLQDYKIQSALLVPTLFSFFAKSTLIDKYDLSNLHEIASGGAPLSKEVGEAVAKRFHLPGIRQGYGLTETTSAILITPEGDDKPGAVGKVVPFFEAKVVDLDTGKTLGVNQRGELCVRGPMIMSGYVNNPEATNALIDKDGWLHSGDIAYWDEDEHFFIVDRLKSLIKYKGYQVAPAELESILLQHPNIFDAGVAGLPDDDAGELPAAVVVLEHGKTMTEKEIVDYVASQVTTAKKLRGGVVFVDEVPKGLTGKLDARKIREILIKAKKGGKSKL

VACV WR = assay type: cell-based, vaccinia virus

Compound	viral entry (luciferase RLU) (VACV WR-Luc virus)	virus-loaded actin tails per cell (VACV WR A4-YFP)	CC50 (in vitro) [nM]	IC50 (VACV-WR-GFP virus) [nM]	IC90 (VACV-WR-GFP virus) [nM]	MV yield / MV formation (VACV IHDJ virus)	luciferase enzyme activity (RLU) (luciferase)	viral plaque size, wild-type virus (VACV WR)	luciferase activity (viral entry) (VACV WR-Luc virus)
O=C1CN(C(=O)c2nccs2)C(c2cc(Cl)cc(Cl)c2)c2cc(Cl)ccc2N1 (centres unmarked) [PA24]	did not markedly decrease viral entry; also recorded: reduced viral entry	significant decrease in virus-loaded tails	> 400000	1000	1800	–	–	–	–
O=C1CN(C(=O)c2nccs2)C(c2cccc(Cl)c2)c2cc(Br)ccc2N1 (centres unmarked) [PA104]	a decrease in viral entry was observed	significant decrease in virus-loaded tails	> 400000	500	1300	small reduction in MV yield	does not impact luciferase enzyme activity	maximal inhibition of plaque size	observable reduction in luciferase activity
CCC(=O)N1CC(=O)Nc2ccc(Br)cc2C1c1ccccc1 (centres unmarked) [Retro 1]	–	–	> 400000	3000	7200	–	–	–	–
Cc1ccc(/C=N/c2ccccc2C(=O)Nc2ccccc2)s1 [Retro 2]	–	–	> 400000	2200	5500	–	–	–	–
O=C(NN1C(=O)[C@@H]2[C@@H]3C=C[C@@H]([C@H]4C[C@@H]34)[C@@H]2C1=O)c1ccc(C(F)(F)F)cc1 [ST-246]	–	–	> 400000	40	100	–	–	–	–
